Test results reported in patent US20230119539A1, “TRACELESS LINKERS AND PROTEIN-CONJUGATES THEREOF” (Regeneron Pharmaceuticals, Inc., priority 2019, published 2023).

T1: GR (Homo sapiens, UniProt P04150)
T1 construct: host or cells: HEK293 (HEK293/GRLuc; HEK293/GRLuc/MSR1 additionally transduced with human MSR1)
T1 sequence (P04150 524-758 limits assumed): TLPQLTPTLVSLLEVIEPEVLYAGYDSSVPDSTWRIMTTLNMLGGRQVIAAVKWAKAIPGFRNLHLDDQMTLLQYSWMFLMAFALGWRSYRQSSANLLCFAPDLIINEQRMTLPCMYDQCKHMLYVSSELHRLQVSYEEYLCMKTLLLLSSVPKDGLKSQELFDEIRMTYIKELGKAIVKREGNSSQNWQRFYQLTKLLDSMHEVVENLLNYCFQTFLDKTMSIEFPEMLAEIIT

T2: human macrophage scavenger receptor 1 (MSR1) (human, UniProt P21757 1-451)
T2 sequence (looked up): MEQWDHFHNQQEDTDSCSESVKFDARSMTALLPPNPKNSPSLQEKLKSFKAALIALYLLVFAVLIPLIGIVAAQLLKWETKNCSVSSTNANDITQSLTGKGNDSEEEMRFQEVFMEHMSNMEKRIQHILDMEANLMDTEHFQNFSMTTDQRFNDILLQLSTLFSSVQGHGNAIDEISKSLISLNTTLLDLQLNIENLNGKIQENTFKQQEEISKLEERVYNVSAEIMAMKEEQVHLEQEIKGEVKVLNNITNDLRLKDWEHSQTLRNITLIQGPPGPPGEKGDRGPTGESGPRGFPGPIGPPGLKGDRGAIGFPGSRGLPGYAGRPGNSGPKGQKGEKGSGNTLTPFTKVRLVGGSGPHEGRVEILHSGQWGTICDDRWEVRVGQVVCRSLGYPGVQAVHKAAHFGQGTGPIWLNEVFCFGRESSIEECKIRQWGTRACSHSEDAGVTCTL

B1: H1H21234N-N297Q-L1-PIII-1 (antibody, V domains shown)
VH: QVQLQESGPGLVKPSETLSLTCTVTGGSISRNYWSWIRQPPGKGLEWIGYIYYSGSIDYNPSLKSRVTISVDTSKNQFSLKLSSMTAADTAVYYCARDRWNWKYGMDVWGQGTTVIVSS
VL: EIVLTQSPGTLSLSPGERATLSCRASQTVRNNYLAWYHQKPGQAPRLLIYGASSRATGIPDRFSGSGSGTDFTLTISRLEPEDFTVYYCHQYGNSPWTFGQGTKMEIKR
modifications: heavy-chain constant region (not part of this entry): N297Q (EU); linker-payload L1-PIII-1 (DIBAC-suc-PEG4-vcPAB-PIII-1, payload 6,11-2F-budesonide III) clicked onto azido-PEG3-amine on glutamines; DAR 4
B2: H1H21234N-N297Q-L3-PIII-1 (antibody, V domains shown)
VH: QVQLQESGPGLVKPSETLSLTCTVTGGSISRNYWSWIRQPPGKGLEWIGYIYYSGSIDYNPSLKSRVTISVDTSKNQFSLKLSSMTAADTAVYYCARDRWNWKYGMDVWGQGTTVIVSS
VL: EIVLTQSPGTLSLSPGERATLSCRASQTVRNNYLAWYHQKPGQAPRLLIYGASSRATGIPDRFSGSGSGTDFTLTISRLEPEDFTVYYCHQYGNSPWTFGQGTKMEIKR
modifications: heavy-chain constant region (not part of this entry): N297Q (EU); linker-payload L3-PIII-1 (DIBAC-suc-PEG4-GGF-PIII-1) clicked onto azido-PEG3-amine on glutamines; DAR 4

Assays:
[1] = Metabolic stability with human liver microsomes; format: in vitro ADME; settings: for Percent Remaining (%): Mean; for CLint scaled / half-life: human
Protocol: The metabolic stability of payload PIII-1 incubated with human liver microsomes was evaluated and the results were shown in the Table 7e below.

GR [2] = biological target: T1, GR; assay: GR luciferase reporter assay in HEK293/GRLuc/MSR1 cells; format: cell-based; settings: Table 8b, free payloads; for S/N: HEK293/GRLuc/MSR1; for EC50: HEK293/GRLuc/MSR1, 48 hours
Protocol: (§1) Activity of anti-MSR1 ncADCs were tested using an MSR1 ADC steroid responsive luciferase reporter assay. To generate the assay cell line, HEK293 cells were co-transfected with the pBind-GR (Promega, Cat #E158A) and pGL4.35 [Luc2P/9xGAL4UAS/Hygro] (Promega, Cat #E137A) vectors. The pBind-GR vector expresses a fusion protein consisting of the GR ligand binding and the yeast Gal4DNA-binding domain, which binds to the Gal4 upstream activation sequence (UAS) in the luciferase expression vector, that can induce luciferase expression following GR agonist binding. The cells were selected for at least 2 weeks in G418+hygromycin and the resulting cell line is referred to as HEK293/GRLuc. HEK293/GRLuc cells were then transduced with a human MSR1 lentiviral expression vector and 48 hours later cells were sorted for MSR1 positive cells. The resulting cell line is referred to as HEK293/GRLuc/MSR1.
(§2) Three-fold serial dilutions of ncADCs in assay buffer were added to the cells for 48 hours. The last well in the plate served as blank control containing only the assay media and was plotted as a continuation of the 3-fold serial dilution. Luciferase activity was determined using the One-Glo™ reagent (Promega, Cat #E6130). Relative light units (RLUs) were measured on an Envision luminometer (PerkinElmer) and EC50 values were determined using a four-parameter logistic equation over a 10-point dose response curve (GraphPad Prism). The signal to noise (S/N) was determined by taking the ratio of the highest RLU on the dose response curve to the RLU in the untreated wells.
(§3) To test the activity of GR agonist payloads disclosed herein, a cell-based GR responsive luciferase reporter assay was developed as described above.
(§4) Three-fold serial dilutions of free payloads were prepared in 100% DMSO, transferred to fresh assay media, and added to the cells for 48 hours. […] The last well in the plate served as blank control containing only the assay media and 0.2% DMSO (untreated well) and was plotted as a continuation of the 3-fold serial dilution. Luciferase activity was determined using the One-Glo™ reagent (Promega, Cat #E6130). Relative light units (RLUs) were measured on an Envision luminometer (PerkinElmer) and EC50 values were determined using a four-parameter logistic equation over a 10-point dose response curve (GraphPad Prism). The signal to noise (S/N) was determined by taking the ratio of the highest RLU on the dose response curve to the RLU in the untreated wells.

GR [3] = biological target: T1, GR; assay: GR luciferase reporter assay in HEK293/GRLuc cells; format: cell-based; settings: for EC50: 48 hours
Protocol: as §1, §2, §3, §4

[4] = biological target: T2, human macrophage scavenger receptor 1 …; assay: cell-based or functional assay
[5] = Lysosomal cleavage assay (payload release); format: in vitro ADME, human; settings: 0 hours, 1 μM payload-equivalent ncADC, 37° C.; for Released Payload Precursor Concentration: precursor PIII-1 released; for Released Payload Concentration: steroid III released
Protocol: To confirm the release of payloads linked to antibodies via hemiaminal ether linkers, a lysosomal cleavage assay was performed. […] 200 μL of resulting mixture with 1 μM payload-equivalent ncADC was incubated at 37° C. with gentle shaking over a 24-hour period. A 20 μL aliquot was taken at 0, 0.5, 1.0, 2.0, 4.0, 8.0 and 24 hours and immediately transferred to a plate containing 80 μL cold acetonitrile to deactivate the lysosomal enzymes and precipitate the proteins. After centrifugation at 2,000 rpm for 5 minutes, aliquots of supernatant were diluted with an equal volume of water for LC-MS analysis to determine the amount of precursor and payload released from ncADC.

[6] = Table 8, ncADCs, highest RLU / RLU of untreated wells

Molecule	Percent Remaining (%) ([1]; 0 min)	Percent Remaining (%) ([1]; 5 min)	Percent Remaining (%) ([1]; 15 min)	Percent Remaining (%) ([1]; 30 min)	Percent Remaining (%) ([1]; 45 min)	CLint scaled [1] [mL/min/kg]	half-life [1] [min]	S/N (GR [2])	EC50 (GR [2]) [nM]	S/N (GR [3]; Table 8b, free payloads)	EC50 (GR [3]; Table 8b, free payloads) [nM]	EC50, GR luciferase reporter activity in HEK293/GRLuc/MSR1 cells [4] [nM]	S/N (highest RLU / RLU in untreated wells), HEK293/GRLuc/MSR1 cells [4]	Released Payload Precursor Concentration [5] [nM]	Released Payload Concentration [5] [nM]	EC50 (GR [3]; Table 8, ncADCs) [nM]	S/N (GR [3]; [6])
CCCC1O[C@@H]2C[C@H]3[C@@H]4C[C@H](F)C5=CC(=O)C=C[C@]5(C)[C@@]4(F)[C@@H](O)C[C@]3(C)[C@]2(C(=O)CO)O1 (stereo partly shown) [III]	100.00	16.15	0.75	0.76	0.14	811	2.14	156.7	0.0242	34.4	0.0197						
CCCC1O[C@@H]2C[C@H]3[C@@H]4C[C@H](F)C5=CC(=O)C=C[C@]5(C)[C@@]4(F)[C@@H](O)C[C@]3(C)[C@]2(C(=O)COCNC(=O)CN)O1 (stereo partly drawn) [PIII-1, 2-Amino-N-({2-[(1S,2S,4R,8S,9S,11S,12R,13S,19S)-12,19-difluoro-11-hydroxy-9,13-dimethyl-16-oxo-6-propyl-5,7-dioxapentacyclo[10.8.0.0^2,9.0^4,8.0^13,18]icosa-14,17-dien-8-yl]-2-oxoethoxy}methyl)acetamide]	100.00	59.35	23.58	6.83	2.68	223	7.8	179.3	0.0545	32.1	0.0465						
B1												0.0973	143	0	0	50.6	16.4
B2												0.0854	269	0	10.1	47.6	17.5
